Columns and labels:
[1] = tested on: partial meniscectomy model in rabbits; assay: partial meniscectomy model of osteoarthritis in rabbits (erosion area); assay type: in vivo, rabbit; details: female rabbits, 1, 3 and 10 mg/kg per day, administered twice a day, 7 days after operation, FIG. 1
Protocol: Efficiencies of the compounds in the present invention on osteoarthrosis were proven, for example, by an experiment of a partial meniscectomy model in rabbits.
Female rabbits (Kbs: NZW (Healthy)) were preliminarily bred for a week and subjected to ablative operation of meniscus by the following method.
Each animal was anesthetized by a subcutaneous injection of 2% parenteral celactal (0.05 ml/kg) to the poll and an intravenous injection of nembutal (20 mg/kg) to the marginal auricle. Their right knees were disinfected with Iodine tincture that dilutes five times with distilled water. If necessary, local anesthesia was performed by dropping 2% of parenteral xylocaine to incised part.
Then, skins and articular capsules outside knees of right hind legs were incised at right angle to patellar ligament, fibular collateral ligaments and sesamoid ligaments were transected. In that case, parenteral solution of bosmin was dropped for the arrest of hemorrhage. […]
After anesthesia by an intravenous injection of parenteral nembutal (40 mg/kg) to marginal auricle, the animals were made to die by venesection and gathered their right knees of joint part. […] After collecting all samples and masking them, their erosion areas were measured with a stereoscopic microscope. […]

rat = assay: toxicity, single oral administration to rat; assay type: in vivo; details: oral administration to rat once
Protocol: It was considered that the toxicities of the compounds represented by the formula (I) could be very low and safe to use as a medicine. For example, the lowest lethal dose in oral administration of compound (II) to rat once was 2000 mg/kg or more.

model of OA in rabbits = details: reported in Inflamm Res 44, Suppl 2, S117-118 (1995); cited from earlier work

Row | SMILES | inhibitory effect on erosion area of thigh bone [1] | lowest lethal dose (rat) [mg/kg] | effect on a model of OA in rabbits (model of OA in rabbits)
1 | C[C@@H](C[C@@H](CO)NC(=O)c1ccc(Oc2ccccc2)cc1)C(=O)NO [compound (II), N-hydroxy-5-hydroxy-2(S)-methyl-4(S)-(4-phenoxybenzoyl)aminopentanamide] | inhibitory effect | ≥ 2000 | –
2 | COc1ccc(S(=O)(=O)N(Cc2cccnc2)[C@@H](C(=O)NO)C(C)C)cc1.Cl [CGS-27023A, 2(R)-[N-(4-methoxyphenylsulfonyl)-N-(3-pyridylmethyl)amino]-3-methylbutanohydroxamic acid hydrochloride] | – | – | could be effect

Source: patent US20040198831A1, “Remedial agent for arthrosis deformans” (priority 2001, published 2004)
